The record followed here is patent publication US20240252488A1 (KOREA RESEARCH INSTITUTE OF CHEMICAL TECHNOLOGY, priority 2020, published 2024).

Structures are written as SMILES.

The test system of one assay is FADD−/− Jurkat cells. Nature of the assay: Necroptosis inhibition assay, TNF-α-induced necroptosis (CellTiter-Glo 2.0). Particulars: TNF-α 15 ng/mL; for Necroptosis inhibition assay (Rescue %) 10 μM: compound 10 μM; for Necroptosis inhibition assay (Rescue %) 1 μM: compound 1 μM. It counts as cell-based, human. As to the method: Necroptosis Inhibition Assay
Necroptosis inhibition was evaluated by the following method.
80 μL of FADD gene-defective human T lymphocyte cells (FADD−/− Jurkat cells) were equally distributed into each well at 5.0×10^5 cells/mL in a white 96-well plate with a transparent bottom. 20 μL of the medium containing test compound was treated in each well so that the final concentration of the compound was 0.1, 1, and 10 μM, and reacted at room temperature for 30 minutes. After the 30-minute reaction was over, TNF (tumor necrosis factor)-α was treated in the corresponding well so that the final concentration of TNF-α was 15 ng/mL in order to induce necroptosis. It was cultured in a 5% CO2, 37° C. incubator for 20 to 24 hours.
After incubation, the 96-well plate was left at room temperature for 30 minutes. After 30 minutes, Promega's CellTiter-Glo 2.0 reagent was diluted 1:3 with PBS and 100 μL of the diluted solution was added to each well to confirm cell viability by measuring the amount of ATP. After the treatment, the plate was shielded from light and incubated at room temperature for 2 minutes with orbital shaking, and then left at room temperature for 10 minutes without shaking. After measuring the luminescence at 0.5 seconds per well using a plate scanner, the cytotoxicity and necroptosis inhibition rate for the compound were calculated using the measured values.

The next assay deals with T1, MLKL (Homo sapiens, UniProt Q8NB16).
T1 sequence (Q8NB16 1-471): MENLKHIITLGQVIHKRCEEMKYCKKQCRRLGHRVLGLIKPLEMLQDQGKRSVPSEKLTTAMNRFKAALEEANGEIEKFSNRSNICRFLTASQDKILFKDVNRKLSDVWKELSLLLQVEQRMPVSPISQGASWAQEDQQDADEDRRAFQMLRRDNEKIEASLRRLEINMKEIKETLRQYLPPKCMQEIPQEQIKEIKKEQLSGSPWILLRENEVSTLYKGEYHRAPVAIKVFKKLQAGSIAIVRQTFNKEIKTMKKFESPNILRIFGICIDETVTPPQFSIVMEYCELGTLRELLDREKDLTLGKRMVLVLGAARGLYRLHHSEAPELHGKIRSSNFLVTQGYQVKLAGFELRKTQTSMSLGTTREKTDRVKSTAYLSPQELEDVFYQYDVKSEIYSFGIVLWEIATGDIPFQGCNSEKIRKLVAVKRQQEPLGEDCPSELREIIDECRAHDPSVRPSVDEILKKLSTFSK
Nature of the assay: Measurement of binding affinity with MLKL receptor (competitive binding assay, Kd). Also noted: made in house; host or cells: HEK 293 cell line (T7 phage in E. coli BL21-derived host is also described). How it is done: Measurement of Binding Affinity with MLKL Receptor (Competitive Binding Assay)
The binding affinity was evaluated by measuring the Kd value in the following method.
To prepare kinase-tagged T7 phage strains in an E. coli host derived from the BL21 strain, E. coli were grown to log-phase and infected with T7 phage and incubated with shaking at 32° C. until lysis. The lysates were centrifuged and filtered to remove cell debris. For kinase production, it was expressed in human embryonic kidney cell line (HEK 293 cell line), and subsequently tagged with DNA for qPCR detection.
The liganded beads were blocked with excess biotin and washed with blocking buffer (SeaBlock (Pierce), 1% BSA, 0.05% Tween 20, 1 mM DTT) to remove unbound ligand and to reduce non-specific binding. […] Test compounds were prepared as 111× stocks in 100% DMSO.
The compounds were then diluted directly into the assays such that the final concentration of DMSO was 0.9%. All reactions performed in polypropylene 384-well plate. Each was a final volume of 0.02 ml. […] The kinase concentration in the eluates was measured by qPCR.

The Kd is the free concentration of one partner at which half of the binding sites on the other are occupied at equilibrium, for simple one-to-one binding. A higher Kd goes with weaker binding. As to `Nc1ncc(C2=CCN(C(=O)CCCCCNc3cccc4c3C(=O)N(C3CCC(=O)NC3=O)C4=O)CC2)cc1C(=O)O[C@@H](C(=O)Nc1ccc(F)cc1)c1ccccc1` (stereo partly drawn) [TDH-073, (R)-2-((4-fluorophenyl)amino)-2-oxo-1-phenylethyl 6-amino-1′-(6-((2-(2,6-dioxopiperidin-3-yl)-1,3-dioxoisoindolin-4-yl)amino)hexanoyl)-1′,2′,3′,6′-tetrahydro-[3,4′-bipyridine]-5-carboxylate], the “Necroptosis inhibition assay (Rescue %) 10 μM” value with FADD−/− Jurkat cells came to 3.26%. For the same compound, the Kd on MLKL turned out to be 210 nM.
As to `Nc1ncc(-c2cnn(C3CCN(CCOCCOCCNc4cccc5c4C(=O)N(C4CCC(=O)NC4=O)C5=O)CC3)c2)nc1C(=O)N[C@@H](C(=O)Nc1ccc(F)cc1)c1ccccc1` (stereo partly drawn) [TDH-215, 3-amino-6-(1-(1-(2-(2-(2-((2-(2,6-dioxopiperidin-3-yl)-1,3-dioxoisoindolin-4-yl)amino)ethoxy)ethoxy)ethyl)piperidin-4-yl)-1H-pyrazol-4-yl)-N-((R)-2-((4-fluorophenyl)amino)-2-oxo-1-phenylethyl)pyrazine-2-carboxamide], in the assay on FADD−/− Jurkat cells, the “Necroptosis inhibition assay (Rescue %) 1 μM” value was 15.33% and the “Necroptosis inhibition assay (Rescue %) 10 μM” value came out at 21.83%. Moreover, on MLKL, the affinity, expressed as Kd, was 91 nM.
Regarding `Nc1ncc(C2=CCN(C(=O)CCCCCNc3ccc4c(c3)C(=O)N(C3CCC(=O)NC3=O)C4=O)CC2)cc1C(=O)O[C@@H](C(=O)Nc1ccc(F)cc1)c1ccccc1` (stereo partly drawn) [TDH-075, (R)-2-((4-fluorophenyl)amino)-2-oxo-1-phenylethyl 6-amino-1′-(6-((2-(2,6-dioxopiperidin-3-yl)-1,3-dioxoisoindolin-5-yl)amino)hexanoyl)-1′,2′,3′,6′-tetrahydro-[3,4′-bipyridine]-5-carboxylate], in the assay with FADD−/− Jurkat cells, the “Necroptosis inhibition assay (Rescue %) 1 μM” value stood at 10.02% and the “Necroptosis inhibition assay (Rescue %) 10 μM” value is 9.05%. Moreover, binding on MLKL was characterised by a dissociation constant (Kd) of 140 nM.
The corresponding values for `Nc1ncc(-c2cnn(C3CCN(C(=O)COCCOCCNC(=O)C4CN(c5cccc6c5C(=O)N(C5CCC(=O)NC5=O)C6=O)C4)CC3)c2)nc1C(=O)O[C@@H](C(=O)Nc1ccc(F)cc1)c1ccccc1` (stereo partly drawn) [TDH-192, (R)-2-((4-fluorophenyl)amino)-2-oxo-1-phenylethyl 3-amino-6-(1-(1-(2-(2-(2-(1-(2-(2,6-dioxopiperidin-3-yl)-1,3-dioxoisoindolin-4-yl)azetidine-3-carboxamido)ethoxy)ethoxy)acetyl)piperidin-4-yl)-1H-pyrazol-4-yl)pyrazine-2-carboxylate] are 50.37%, 45.32% and 6.1 nM.
Consider `Nc1ncc(-c2cnn(C3CCN(CC4CCN(c5cccc6c5C(=O)N(C5CCC(=O)NC5=O)C6=O)CC4)CC3)c2)nc1C(=O)N[C@@H](C(=O)Nc1ccc(F)cc1)c1ccccc1` (stereo partly drawn) [TDH-208, 3-amino-6-(1-(1-((1-(2-(2,6-dioxopiperidin-3-yl)-1,3-dioxoisoindolin-4-yl)piperidin-4-yl)methyl)piperidin-4-yl)-1H-pyrazol-4-yl)-N-((R)-2-((4-fluorophenyl)amino)-2-oxo-1-phenylethyl)pyrazine-2-carboxamide], for which the “Necroptosis inhibition assay (Rescue %) 10 μM” value in the assay on FADD−/− Jurkat cells came out at 15.28%. The same compound returned a Kd on MLKL of 350 nM.
Turning to `Nc1ncc(-c2cnn(C3CCN(CCOCCOCCNC(=O)C4CCN(c5ccc6c(c5)C(=O)N(C5CCC(=O)NC5=O)C6=O)CC4)CC3)c2)nc1C(=O)N[C@@H](C(=O)Nc1ccc(F)cc1)c1ccccc1` (stereo partly drawn) [TDH-214, 3-amino-6-(1-(1-(2-(2-(2-(1-(2-(2,6-dioxopiperidin-3-yl)-1,3-dioxoisoindolin-5-yl)piperidine-4-carboxamido)ethoxy)ethoxy)ethyl)piperidin-4-yl)-1H-pyrazol-4-yl)-N-((R)-2-((4-fluorophenyl)amino)-2-oxo-1-phenylethyl)pyrazine-2-carboxamide], in the assay with FADD−/− Jurkat cells, the “Necroptosis inhibition assay (Rescue %) 1 μM” value is given as 26.74% and the “Necroptosis inhibition assay (Rescue %) 10 μM” value was determined as 48.41%. On MLKL, this compound gave a Kd of 180 nM.
In the case of `CC(C)(C)OC(=O)N1CCC(n2cc(-c3cnc(N)c(C(=O)N[C@@H](C(=O)Nc4ccc(F)cc4)c4ccccc4)n3)cn2)CC1` [TDH-098, tert-butyl (R)-4-(4-(5-amino-6-((2-((4-fluorophenyl)amino)-2-oxo-1-phenylethyl)carbamoyl)pyrazin-2-yl)-1H-pyrazol-1-yl)piperidine-1-carboxylate], in the assay with FADD−/− Jurkat cells, the “Necroptosis inhibition assay (Rescue %) 1 μM” value was determined as 3.54%. The same compound came in with a Kd at MLKL of 200 nM.
On to `Nc1ncc(-c2cnn(C3CCN(CCOCCOCCNc4ccc5c(c4)C(=O)N(C4CCC(=O)NC4=O)C5=O)CC3)c2)nc1C(=O)O[C@@H](C(=O)Nc1ccc(F)cc1)c1ccccc1` (stereo partly drawn) [TDH-122, (R)-2-((4-fluorophenyl)amino)-2-oxo-1-phenylethyl 3-amino-6-(1-(1-(2-(2-(2-((2-(2,6-dioxopiperidin-3-yl)-1,3-dioxoisoindolin-5-yl)amino)ethoxy)ethoxy)ethyl)piperidin-4-yl)-1H-pyrazol-4-yl)pyrazine-2-carboxylate], for which the “Necroptosis inhibition assay (Rescue %) 1 μM” value in the assay with FADD−/− Jurkat cells was 20.17%. Besides, binding at MLKL was characterised by a dissociation constant (Kd) of 1.8 nM.
With `Nc1ncc(-c2cnn(C3CCN(CCCCCCCCCCNc4ccc5c(c4)C(=O)N(C4CCC(=O)NC4=O)C5=O)CC3)c2)nc1C(=O)O[C@@H](C(=O)Nc1ccc(F)cc1)c1ccccc1` (stereo partly drawn) [TDH-160, (R)-2-((4-fluorophenyl)amino)-2-oxo-1-phenylethyl 3-amino-6-(1-(1-(10-((2-(2,6-dioxopiperidin-3-yl)-1,3-dioxoisoindolin-5-yl)amino)decyl)piperidin-4-yl)-1H-pyrazol-4-yl)pyrazine-2-carboxylate], the “Necroptosis inhibition assay (Rescue %) 1 μM” value in the assay on FADD−/− Jurkat cells amounted to 3.59%. The compound further showed a Kd on MLKL of 9.4 nM.
Regarding `Nc1ncc(C2=CCN(C(=O)CCCCCNC(=O)C3CN(c4ccc5c(c4)C(=O)N(C4CCC(=O)NC4=O)C5=O)C3)CC2)cc1C(=O)O[C@@H](C(=O)Nc1ccc(F)cc1)c1ccccc1` (stereo partly drawn) [TDH-092, (R)-2-((4-fluorophenyl)amino)-2-oxo-1-phenylethyl 6-amino-1′-(6-(1-(2-(2,6-dioxopiperidin-3-yl)-1,3-dioxoisoindolin-5-yl)azetidine-3-carboxamido)hexanoyl)-1′,2′,3′,6′-tetrahydro-[3,4′-bipyridine]-5-carboxylate], the “Necroptosis inhibition assay (Rescue %) 1 μM” value in the assay with FADD−/− Jurkat cells turned out to be 2.1%. The Kd on MLKL amounted to 120 nM.
For `Nc1ncc(C2=CCN(C(=O)CCCCCNC(=O)CNc3ccc4c(c3)C(=O)N(C3CCC(=O)NC3=O)C4=O)CC2)cc1C(=O)O[C@@H](C(=O)Nc1ccc(F)cc1)c1ccccc1` (stereo partly drawn) [TDH-072, (R)-2-((4-fluorophenyl)amino)-2-oxo-1-phenylethyl 6-amino-1′-(6-(2-((2-(2,6-dioxopiperidin-3-yl)-1,3-dioxoisoindolin-5-yl)amino)acetamido)hexanoyl)-1′,2′,3′,6′-tetrahydro-[3,4′-bipyridine]-5-carboxylate], in the assay on FADD−/− Jurkat cells, the “Necroptosis inhibition assay (Rescue %) 1 μM” value stood at 12.25% and the “Necroptosis inhibition assay (Rescue %) 10 μM” value was found to be 1.53%. On MLKL, this compound had a Kd of 30 nM.
With `Nc1ncc(C2=CCN(C(=O)COCCOCCNC(=O)CNc3ccc4c(c3)C(=O)N(C3CCC(=O)NC3=O)C4=O)CC2)cc1C(=O)O[C@@H](C(=O)Nc1ccc(F)cc1)c1ccccc1` (stereo partly drawn) [TDH-085, (R)-2-((4-fluorophenyl)amino)-2-oxo-1-phenylethyl 6-amino-1′-(2-(2-(2-(2-((2-(2,6-dioxopiperidin-3-yl)-1,3-dioxoisoindolin-5-yl)amino)acetamido)ethoxy)ethoxy)acetyl)-1′,2′,3′,6′-tetrahydro-[3,4′-bipyridine]-5-carboxylate], the “Necroptosis inhibition assay (Rescue %) 1 μM” value in the assay with FADD−/− Jurkat cells is reported as 5.02%. This compound also yielded a Kd at MLKL of 12 nM.
